In patent publication US10251845B2, “Fatty acid cysteamine conjugates and their use as activators of autophagy” (Catabasis Pharmaceuticals, Inc., priority 2014, dated 2019):
Entries after “also recorded” stand apart in the source; their conditions may differ. Where two headings read alike, the source gives them in different places.

Experiments:
[1] = Plasma stability, rat plasma; format: in vitro ADME; conditions: rat plasma, 5 μM, 0.5, 1 and 2 hour time points
Method: (§1) The in vitro stability of the test compounds was studied in human, mouse, beagle and rat plasma (plasma was purchased from Bioreclamation). Plasma was diluted to 50% with PBS (pH 7.4). Test compounds were dissolved in DMSO to a final concentration of 10 mM and then diluted to 1 mM in MeOH. Incubations were carried at a test compound concentration of 5 μM with a final DMSO concentration of 2.5%. Plasma (198 μL) was added to 96-well plate and incubated at 37° C. for 30 minutes before the addition of […] of the test compound. The resulting mixture was then incubated at 37° C. for 2 hours. At appropriate time intervals (0, 30, 60 and 120 minutes), aliquots (50 μL) were removed and reactions were terminated by adding 200 μL of acetonitrile with an internal standard. Simultaneously, plasma samples containing Benflourex or Procaine (control compound) were terminated by adding 200 μL of acetonitrile internal standard. The sample plate was centrifuged at 3500 rpm for 45 minutes at 4° C. and the supernatant was transferred to a new plate for analysis by LC/MS-MS (Agilent Model No: HPLC: 1200, MS: 6410). […] A binary gradient consisting of 0.1% formic acid in water and 0.1% formic acid in methanol was used for analyte elution.

LC3-II/LC3-I = test: LC3 immunoblotting in Huh-7 cells (autophagy); format: cell-based
Method: The test compound was first solubilized in 100% DMSO as a 50 mM solution, and then diluted 1 to 100 in FBS as a 10× stock solution of 500 μM.
Huh-7 cells were seeded in 10% FBS DMEM overnight. The cells media were replaced with drug diluted 1 to 10 in DMEM (final concentration 50 μm in 10% FBS DMEM). Four hours after the drug addition, cells were lysed in RIPA buffer. Cell lysates were analyzed by immunoblotting with anti-LC3A/B antibodies (Cell signaling 12741). Data were presented as LC3-II/LC3-I ratio compared to vehicle treated samples.
The same experimental procedure detailed in Example 11 was used, except that 2 hours after the drug addition, cells were lysed in RIPA buffer, instead of the previously described 4 hours. Cell lysates were again analyzed by immunoblotting with anti-LC3A/B antibodies (Cell Signaling Technology 12741). Data were presented as LC3-II/LC3-I ratio compared to vehicle treated samples.
This same synergy experiment was repeated in Huh-7 cells after a 4 hour treatment with compound II-2 along with a higher concentration of the individual components (250 μM each of cystamine, EPA or a combination of cystamine and EPA).

ΔF508 CFTR = ΔF508 CFTR (Homo sapiens, UniProt P13569, DEL508-508); test: Ussing chamber short circuit current in Fisher Rat Thyroid epithelial cells overexpressing ΔF508-CFTR; format: cell-based; design: expressed in transfected cells; host or cells: Fisher Rat Thyroid (FRT) epithelial cells, stably transfected; conditions: FRT cells, 10 μM, 4 hours
Method: The most prevalent disease causing mutation of the CF transmembrane conductance regulator (CFTR) chloride channel is the deletion of phenylalanine at position 508 in the primary sequence of CFTR (ΔF508-CFTR). This mutation causes a trafficking defect resulting in a severe reduction of ΔF508-CFTR protein at the cell surface. The trafficking defect can be corrected by incubation at low temperature (27° C. overnight) or pharmacologically by small molecules and CFTR correctors. Chloride transport function of Fisher Rat Thyroid (FRT) epithelial cells overexpressing ΔF508-CFTR in monolayers grown on Snapwell™ filter inserts will be monitored as the CFTR agonist evoked short circuit (ISC) current output of an Ussing epithelial voltage clamp apparatus. An objective of this study is to measure the ability of test compounds to restore function to defective ΔF508-CFTR in FRT epithelial cell monolayers.
Measurement of corrector efficacy is divided into two phases. The initial phase is incubation of epithelia with the test compounds for a period of time (that can range from 2 hours to one or two days) in a 37° C. incubator and the second phase is measurement of epithelial ΔF508-CFTR chloride channel current with an epithelial voltage clamp (Ussing assay). The short circuit current (ISC) is measured under short circuit conditions (0 mV transepithelial potential). The ISC magnitude is an index of corrector efficacy and is compared to vehicle and positive control.
Cryopreserved FRT cells stably transfected with ΔF508-CFTR cDNA (Pedemonte et al. (2005) J. CLIN. INVEST., 115, p. 2564-2571) were expanded and plated on Snapwell™ filters for measurement of short circuit current in an Ussing apparatus (Physiologic Instruments, Inc., Sand Diego, Calif.). Cells were grown in Coon's modification of Ham's F-12 media supplemented with zeocin and G-418.
To conduct the assay, a compound of the invention was solubilized as follows: • 1) Prepare 25 mM stock solution in 100% DMSO. • 2) Dilute 12 μL of 25 mM stock solution in 1.20 mL of FBS to make 250 μM intermediate dilution 10× stock (1% DMSO, 99% FBS). Gently vortex all solutions until the solution becomes clear. • 3) Prepare final dilution of 10 μM in 10 mL of Coon's media per well (4 wells×2 mL per well bottom+0.2 mL per insert top=8.8 mL and 1.2 mL reserve for handling losses) by addition of 400 μL of 10× stock and 600 μL of 10× carrier (1% DMSO, 99% FBS) to 9000 μL of Coon's media.
For this example, the test compound was solubilized and added to the appropriate inserts of Ussing chambers (n=4 for each test compound, final test concentration of 10 μM). A DMSO vehicle control and a positive control (VX-809 at 3 μM) were also used. For this particular example, all the test articles, including the positive control, were incubated with the cells for a period of 4 hours. The FRT cell monolayers grown on Snapwell™ filter inserts were transferred to Physiologic Instruments Ussing recording chambers (Physiologic Instruments, Inc., San Diego, Calif.) and superfused with HB-PS on the basolateral side and 78CF-PS on the apical side. One or more 6-channel or 8-channel Physiologic Instruments VCC MC6 or VCC MC8 epithelial voltage clamps were then used in combination to record the short circuit current (ISC) during the entire run. To initiate the ISC measurement, amphotericin (100 μM) was added to the basolateral side of the Snapwell™ filter insert to permeabilize the epithelial cells for 15 min. Forskolin (10 μM), IBMX (100 μM), Genistein (20 μM) and the CFTRinh-172 (20 μM) were added sequentially after the following incubation periods (15 min, 20 min, 10 min, 15 min and 15 min respectively). Data acquisition and analyses were performed using iWorx data acquisition hardware and Labscribe 2 software (iWorx, Dover, N.H.). […]

[2] = Plasma stability, mouse plasma; format: in vitro ADME; conditions: 5 μM, 0.5, 1 and 2 hour time points
Method: as §1

[3] = Oral cannulated rat PK study (portal and jugular vein); format: in vivo, Sprague Dawley rats; conditions: rat, oral; for AUC(0-t) / Cmax: Sprague Dawley
From the text: The compounds of the invention were solubilized in a mixture of excipients consisting 40% Tween, 50% Peceol, 10% PEG400 and diluted with water to form a self-emulsifying aqueous mixture for oral administration to animals. For this study, Sprague Dawley rats that have been surgically implanted with indwelling jugular vein cannula (JVC) and portal vein cannula (PVC) were used (Agilux, Worcester, Mass.). This approach using double-cannulated rats allowed the measurement of the drug concentration that was delivered in the portal vein as well as the drug concentration that was present in the peripheral. For the PK study, serial blood collection was carried out at both the portal and jugular vein at the following time points: 10, 20, 40 min and 1, 2, 4 and 6 hours post dose. The bioanalytical portion of the PK study was carried out using an LC/MS/MS system (Agilent Model No: HPLC: 1200, MS: 6410) and analyzed with the appropriate software (WinNonlin Phoenix 64 6.3.0 395).

Sequence of ΔF508 CFTR (P13569 with tags, fused parts or gaps DEL508-508): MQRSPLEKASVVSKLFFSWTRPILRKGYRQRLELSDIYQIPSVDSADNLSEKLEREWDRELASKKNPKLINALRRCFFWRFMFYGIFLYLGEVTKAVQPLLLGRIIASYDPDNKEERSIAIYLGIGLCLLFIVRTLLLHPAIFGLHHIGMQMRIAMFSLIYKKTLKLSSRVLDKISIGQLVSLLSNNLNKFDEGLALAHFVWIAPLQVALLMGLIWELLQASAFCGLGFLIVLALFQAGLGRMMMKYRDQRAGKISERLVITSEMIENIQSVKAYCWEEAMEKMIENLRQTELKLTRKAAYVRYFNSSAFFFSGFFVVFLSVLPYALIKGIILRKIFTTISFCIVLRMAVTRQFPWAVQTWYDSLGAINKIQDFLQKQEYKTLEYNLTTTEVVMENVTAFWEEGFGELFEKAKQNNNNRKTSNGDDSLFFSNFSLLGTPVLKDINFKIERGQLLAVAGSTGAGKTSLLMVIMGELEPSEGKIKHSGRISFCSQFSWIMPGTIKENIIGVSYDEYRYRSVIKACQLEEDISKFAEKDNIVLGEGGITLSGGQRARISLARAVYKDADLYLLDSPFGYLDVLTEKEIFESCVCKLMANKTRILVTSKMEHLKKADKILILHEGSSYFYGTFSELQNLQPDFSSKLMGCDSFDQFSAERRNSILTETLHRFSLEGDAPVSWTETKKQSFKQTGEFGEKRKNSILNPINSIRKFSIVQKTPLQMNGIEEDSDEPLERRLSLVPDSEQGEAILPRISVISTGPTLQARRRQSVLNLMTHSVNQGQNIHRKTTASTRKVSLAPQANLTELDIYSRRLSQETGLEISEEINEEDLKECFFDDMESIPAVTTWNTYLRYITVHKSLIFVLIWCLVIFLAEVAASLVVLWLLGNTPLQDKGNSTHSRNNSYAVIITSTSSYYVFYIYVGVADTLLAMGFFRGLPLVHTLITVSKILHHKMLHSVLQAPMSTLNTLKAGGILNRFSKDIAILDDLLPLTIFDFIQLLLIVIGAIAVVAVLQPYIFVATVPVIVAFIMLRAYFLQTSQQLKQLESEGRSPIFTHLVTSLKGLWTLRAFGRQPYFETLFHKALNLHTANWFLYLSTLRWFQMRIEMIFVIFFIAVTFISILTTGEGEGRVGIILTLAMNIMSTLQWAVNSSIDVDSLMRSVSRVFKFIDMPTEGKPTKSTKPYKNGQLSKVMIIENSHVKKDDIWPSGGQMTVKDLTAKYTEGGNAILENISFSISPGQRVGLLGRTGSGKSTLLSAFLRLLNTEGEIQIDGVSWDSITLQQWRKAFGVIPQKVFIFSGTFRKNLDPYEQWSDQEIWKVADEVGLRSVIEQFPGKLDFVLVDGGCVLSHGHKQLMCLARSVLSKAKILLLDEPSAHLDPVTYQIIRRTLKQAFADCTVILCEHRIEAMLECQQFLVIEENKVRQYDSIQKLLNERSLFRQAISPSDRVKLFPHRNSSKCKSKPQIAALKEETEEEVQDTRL

- plasma stability (parent compound remaining) [1]: unstable; also recorded: not stable
- plasma stability (parent compound remaining) [2]: unstable
- AUC(0-t) ([3]; jugular vein blood (peripheral), systemic circulation (jugular vein), read-out: peripheral AUClast): 0.443 ± 0.221 ng·h/mL
- Cmax ([3]; jugular vein blood (peripheral), systemic circulation (jugular vein), read-out: peripheral Cmax): 0.889 ± 0.33 ng/mL
- AUC(0-t) ([3]; portal vein blood, portal vein, read-out: portal AUClast): 12.5 ± 6.5 ng·h/mL
- Cmax ([3]; portal vein blood, portal vein, read-out: portal Cmax): 20.8 ± 9.45 ng/mL
- peripheral AUClast ([3]; as restated in Example 23): 0.889 ng·h/mL
Compound: CC/C=C\C/C=C\C/C=C\C/C=C\C/C=C\CCCC(=O)NCCSSCCNC(=O)c1cccnc1 [II-2, N-(2-((2-((5Z,8Z,11Z,14Z,17Z)-icosa-5,8,11,14,17-pentaenamido)ethyl)disulfanyl)ethyl)nicotinamide]
- autophagy marker LC3-II (lower band) levels (LC3-II/LC3-I; Huh cells, 25 and 50 μM, 4 hours): increase
- ratio of LC3-II to LC3-I compared to vehicle control (LC3-II/LC3-I; Huh-7, 50 μM, 2 hours): two-fold increase
- autophagy marker LC3-II (lower band) (LC3-II/LC3-I; Huh-7, 50 μM, 2 hours, compared with cystamine, EPA or their combination (50 μM each)): synergistic increase
- activation of autophagy (ratio of LC3-II to LC3-I) (LC3-II/LC3-I; Huh-7, 50 μM, 4 hour treatment): synergistic and higher degree of activation of autophagy
- ratio of LC3-II to LC3-I (LC3-II/LC3-I; Huh-7 cells, 25 μM, 4 hours): increased
- functional rescue of CFTR (short circuit current vs vehicle) (ΔF508 CFTR): able to functionally rescue CFTR function
- degradation of the parent compound upon oral dosing [3]: significant amount of the parent compound was degraded
